Source: patent US9289400B2, “D3 dopamine receptor agonists to treat dyskinesia in parkinson's disease” (priority 2010, dated 2016)
“Also recorded” adds a separate entry of the source. Read-outs that look alike come from different tables or passages of the source.

What was measured:
D3 dopamine receptor [1] = target: T1, D3 dopamine receptor (Homo sapiens (Human), UniProt P35462); experiment: Adenylyl cyclase inhibition (forskolin-induced cAMP) in AtT-20 cells stably expressing D3; format: cell-based; conditions: for Adenylyl cyclase inhibition: agonist type: versus full agonist quinpirole
Description: In the second functional assay, the ability of D2-like dopamine receptors to inhibit adenylyl cyclase activity is assessed. The ability of the lead compound to dose-dependently decrease forskolin-induced cAMP levels is measured. The IC50 values for each receptor subtype is determined by fitting the data points using the Hill equation. Previously, the EC50 and IC50 values for dopamine and quinpirole has been determined in these cell lines in both functional assays.
AtT-20 mouse pituitary cells were grown in Ham's F10 medium with 5% FBS, 10% heat-inactivated horse serum, 2 mM glutamine and 50 μg/ml gentamicin (Invitrogen, Carlsbad, Calif.). AtT-20 cells stabling expressing the human D2S, D2L, D3, and D4.2 and receptor were maintained in the above F10 culture media supplemented with 500 μg/ml G418 (Invitrogen). For electrophysiological characterization, cells were plated onto glass coverslips coated with 40 μg/ml poly L-lysine (Sigma-Aldrich). The generation and characterization of the AtT-20 cells stably expressing various human dopamine receptors have been previously reported (Kuzhikandathil & Oxford, 2000, J. Gen. Physiol. 115:697-706; Kuzhikandathil et al., 1998, Mol. Cell. Neurosci. 12:390-402; Kuzhikandathil & Bartoszyk, 2006, Neuropharm. 51:873-884; Westrich & Kuzhikandathil, 2007, Biochim. Biophys. Acta-MCR 1773:1747-1758; Kuzhikandathil et al., 2004, Mol. Cell. Neurosci. 26:144-155; Westrich et al., 2010, Biochem. Pharmacol. 79:897-907).
Cyclic AMP (cAMP) levels were assessed using the cAMP Biotrak Enzymeimmunoassay (EIA) kit (GE Healthcare, Piscataway, N.J., USA) as described previously (Kuzhikandathil & Bartoszyk, 2006, Neuropharm. 51:873-884). The cAMP levels in each treated sample were assayed in triplicate and the entire experiment repeated three independent times.
To compare the functional effects of the new class of D3 receptor agonists, PBZI (Table 2) and ES609 (Table 3) were tested on AtT-20 cells stably expressing human D3, D2S, D2L or D4.2. Functional efficacy was determined by assessing the ability of PBZI and ES609 to inhibit adenylyl cyclase or activate GIRK channels coupled to these “D2-like” dopamine receptors. The EC50 values of PBZI and ES609 for inhibiting adenylyl cyclase and activating GIRK channels were in the range of 0.2 nM to 30 nM for D3 receptors.
Target sequence in this assay (P35462 other isoform, or with tags, fused parts or gaps): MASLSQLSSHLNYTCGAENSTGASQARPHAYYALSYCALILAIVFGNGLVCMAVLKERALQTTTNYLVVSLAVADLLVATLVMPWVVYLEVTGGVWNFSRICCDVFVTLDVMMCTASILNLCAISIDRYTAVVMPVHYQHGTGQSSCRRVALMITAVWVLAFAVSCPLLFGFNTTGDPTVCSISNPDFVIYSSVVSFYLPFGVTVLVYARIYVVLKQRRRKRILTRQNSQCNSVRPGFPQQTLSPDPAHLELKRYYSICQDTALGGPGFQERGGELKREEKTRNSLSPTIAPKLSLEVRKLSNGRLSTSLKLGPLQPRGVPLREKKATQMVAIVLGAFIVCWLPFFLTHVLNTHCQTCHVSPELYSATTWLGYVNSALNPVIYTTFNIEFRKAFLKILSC

parental AtT-20 cells = experiment: GIRK response in parental (non-transfected) AtT-20 cells; format: cell-based, mouse; conditions: 300 nM, no exogenous D3 receptor expression
Description: To determine whether a compound is an agonist of the D3 dopamine receptor the AtT-20 neuroendocrine cell line that stably expresses the human D3 receptors is used. In the initial screen, the ability of 300 nM lead compound to activate G-protein coupled inward rectifier potassium (GIRK) channels (FIG. 1) is measured using whole cell voltage clamp recording. The protocol has been previously used for performing whole cell voltage clamp and measuring agonist-induced GIRK response. The acute ligand-induced GIRK currents are compared to that elicited by equivalent concentration of native agonist dopamine or full agonist quinpirole. The specificity of the response is determined by measuring GIRK response elicited by the lead compound in non-transfected AtT-20 cells and also in the presence of D2-like dopamine receptor antagonist eticlopride and D3 receptor selective antagonist GR218231 ((+)-(2R)-1,2,3,4-tetrahydro-6-[[(4-methoxyphenyl)sulfonyl]methyl]-N,N-dipropyl-2-naphthalenamine). To be considered for further development, the lead compound should generate a GIRK response that is equal to or greater than that elicited by equivalent concentration (300 nM) of dopamine or quinpirole.
AtT-20 mouse pituitary cells were grown in Ham's F10 medium with 5% FBS, 10% heat-inactivated horse serum, 2 mM glutamine and 50 μg/ml gentamicin (Invitrogen, Carlsbad, Calif.). AtT-20 cells stabling expressing the human D2S, D2L, D3, and D4.2 and receptor were maintained in the above F10 culture media supplemented with 500 μg/ml G418 (Invitrogen). […]
Agonist-activated currents were measured by the whole-cell patch clamp technique in voltage clamp and current clamp mode as described previously (Kuzhikandathil & Oxford, 2000, J. Gen. Physiol. 115:697-706; Kuzhikandathil et al., 1998, Mol. Cell. Neurosci. 12:390-402; Kuzhikandathil & Bartoszyk, 2006, Neuropharm. 51:873-884; Westrich & Kuzhikandathil, 2007, Biochim. Biophys. Acta-MCR 1773:1747-1758; Kuzhikandathil et al., 2004, Mol. Cell. Neurosci. 26:144-155; Westrich et al., 2010, Biochem. Pharmacol. 79:897-907). […]

[2] = system: intrastriatal 6-OHDA lesioned rats; experiment: Levodopa-induced dyskinesia (AIMs score) in intrastriatal 6-OHDA lesioned rats; format: in vivo, rat; conditions: PBZI 17 mg/kg sc; for effect on levodopa-induced dyskinesia (AIMs score): given 10 minutes before 6 mg/kg levodopa, ES609 20 mg/kg
Description: In particular, rats in which unilateral intrastriatal lesion is induced by injection of 6-OHDA (7 μg) at three different sites in the ventrolateral striatum are used. The coordinates for the three injection sites are, in mm: injection site 1: AP: +1.0; ML: −3.0; DV: −5.0; injection site 2: AP: −0.1; ML: −3.7; DV: −5.0; injection site 3: AP: −1.2; ML: −4.5; DV: −5.0. Anterior-posterior (AP) and mediolateral (ML) coordinates are from bregma. The dorso-ventral (DV) coordinates are from dura. The toothbar location is 0.
Seven and half weeks after the lesion, chronic levodopa treatment (6 mg/kg, single dose per day given with 15 mg/kg benserazide) is initiated. Stepping test and AIMs scores are determined on day 1, 8, 10, 17 and 24 after the initiation of chronic levodopa treatment. […] AIMs are scored using a rating scale based on frequency and severity of the dyskinetic symptoms. It should be noted that the rank order of the various AIMs components in terms of frequency and severity in the rat model is: limb>orolingual=axial>>locomotor. This lesion model has been used to test the effect of PBZI on LID (Example 3).
FIG. 13A illustrates the effect of control, PD128907 (a tolerance inducing D2/D3 agonist) and PBZI (a non tolerance inducing D3/D3 agonist) on the total AIMs score (includes locomotor, axial, limb and orolingual) over time of a day 17 (chronic L-DOPA phase) lesioned animal.

D3 dopamine receptor [3] = target: T1, D3 dopamine receptor; experiment: D3 receptor tolerance and SRT: GIRK response to repeated agonist application in AtT-20 cells; format: cell-based; conditions: 1000 nM PBZI applied simultaneously with 100 nM dopamine
Target sequence in this assay (P35462 other isoform, or with tags, fused parts or gaps): as above

D3 dopamine receptor [4] = target: T1, D3 dopamine receptor; conditions: cited from earlier work
Target sequence in this assay (P35462 whole entry): as the sequence (P35462 other isoform, or with tags, fused parts or gaps) above, with S9G counted along it

c-fos expression = conditions: in vivo; cited from earlier work
[5] = AtT-20 cells, D3, read-out: Adenylyl cyclase inhibition EC50
[6] = D3 receptors, range over both compounds and both assays, read-out: EC50 for inhibiting adenylyl cyclase and activating GIRK channels

CC(N)CCc1ccccc1Cl (stereo not shown) [ES609]
EC50 (D3 dopamine receptor [1]; [5]): 0.15 nM
Adenylyl cyclase inhibition Ratio of ES609 to quinpirole response (at 300 nM) (D3 dopamine receptor [1]; D3, 300 nM): 0.71
Adenylyl cyclase inhibition: agonist type (D3 dopamine receptor [1]; D3): full agonists
Adenylyl cyclase inhibition: agonist type (D3 dopamine receptor [1]; D3, listed as ES0609): Full
EC50 (D3 dopamine receptor [1]; [6]): 0.2 to 30 nM
GIRK currents in parental AtT-20 cells (parental AtT-20 cells): neither 300 nM PBZI (hatched bar) nor 300 nM ES609 (cross hatched bar) induced GIRK currents
GIRK currents in parental AtT-20 cells (parental AtT-20 cells; listed as ES 609): did not elicit GIRK currents
effect on levodopa-induced dyskinesia (AIMs score) [2]: improve levodopa-induced dyskinesia

CCCN1CC[C@@H]2c3cc(O)ccc3CC[C@@H]21 [PBZI, (3aS,9bR)-3-propyl-1,2,3a,4,5,9b-hexahydrobenzo[e]indol-8-ol]
EC50 (D3 dopamine receptor [1]; [5]): 35 nM
Adenylyl cyclase inhibition Ratio of PBZI to quinpirole response (at 300 nM) (D3 dopamine receptor [1]; D3, 300 nM): 0.97
Adenylyl cyclase inhibition: agonist type (D3 dopamine receptor [1]; D3): full agonists and full
EC50 (D3 dopamine receptor [1]; [6]): 0.2 to 30 nM
GIRK currents in parental AtT-20 cells (parental AtT-20 cells): neither 300 nM PBZI (hatched bar) nor 300 nM ES609 (cross hatched bar) induced GIRK currents
dyskinesia induced by the compound itself, before levodopa administration ([2]; PD128907 0.1 mg/kg sc): did not induce dyskinesia
effect on levodopa-induced dyskinesia (AIMs score) [2]: reduces AIM scores; also recorded: significantly reduced the AIM score; also recorded: delayed the onset of levodopa induced dyskinesia; also recorded: delayed and reduced the dyskinesia induced by levodopa; also recorded: improve levodopa-induced dyskinesia
competition with dopamine to block development of tolerance and SRT (D3 dopamine receptor [3]): able to compete effectively with dopamine; also recorded: blocked the development of tolerance and SRT
Ki (D3 dopamine receptor [4]; D3, Scheideler et al., 1997, read-out: Ki): 27 nM
Ki (D3 dopamine receptor [4]; source not stated, read-out: D3 dopamine receptor binding affinity Ki): 22 nM
c-fos expression in medial prefrontal cortex and shell region of nucleus accumbens (c-fos expression): specific increases in c-fos expression
